Data: ChEMBL document CHEMBL4834397 (J Med Chem, 2021)
≈ marks a conversion by molar mass, not a printed value. Each block holds one compound with its values, some of them ahead of it.

How the values were obtained:
[1] = Solubility of compound in aqueous buffer at pH 6.8 by HPLC analysis; format: physicochemical
[2] = Half life in rat liver microsomes in presence of NADPH; format: ADME, Microsome
[3] = target: Voltage-gated inwardly rectifying potassium channel KCNH2 (Homo sapiens, UniProt Q12809); test: Displacement of [3H]dofetilide from recombinant human ERG stably expressed in HEK293 cell membranes measured after 90 mins by microbeta liquid scintillation counting method; parameters: species or system Cell membrane
[4] = target: Cytochrome P450 2C9 (Homo sapiens, UniProt P11712); test: Reversible inhibition of CYP2C9 in human liver microsomes using […] as substrate incubated for 10 mins in presence of NADPH by LC-MS analysis; format: ADME
[5] = target: Cytochrome P450 2D6 (Homo sapiens, UniProt P10635); test: Reversible inhibition of CYP2D6 in human liver microsomes using […] as substrate incubated for 10 mins in presence of NADPH by LC-MS analysis; format: ADME
[6] = target: Cytochrome P450 3A5 (Homo sapiens, UniProt P20815); test: Reversible inhibition of CYP3A5 in human liver microsomes using midazolam as substrate incubated for 10 mins in presence of NADPH by LC-MS analysis; format: ADME
[7] = target: T1, Leukotriene A-4 hydrolase (Homo sapiens) (UniProt P09960); conditions: Blood, time 19.0 hrs
T1 sequence (whole entry): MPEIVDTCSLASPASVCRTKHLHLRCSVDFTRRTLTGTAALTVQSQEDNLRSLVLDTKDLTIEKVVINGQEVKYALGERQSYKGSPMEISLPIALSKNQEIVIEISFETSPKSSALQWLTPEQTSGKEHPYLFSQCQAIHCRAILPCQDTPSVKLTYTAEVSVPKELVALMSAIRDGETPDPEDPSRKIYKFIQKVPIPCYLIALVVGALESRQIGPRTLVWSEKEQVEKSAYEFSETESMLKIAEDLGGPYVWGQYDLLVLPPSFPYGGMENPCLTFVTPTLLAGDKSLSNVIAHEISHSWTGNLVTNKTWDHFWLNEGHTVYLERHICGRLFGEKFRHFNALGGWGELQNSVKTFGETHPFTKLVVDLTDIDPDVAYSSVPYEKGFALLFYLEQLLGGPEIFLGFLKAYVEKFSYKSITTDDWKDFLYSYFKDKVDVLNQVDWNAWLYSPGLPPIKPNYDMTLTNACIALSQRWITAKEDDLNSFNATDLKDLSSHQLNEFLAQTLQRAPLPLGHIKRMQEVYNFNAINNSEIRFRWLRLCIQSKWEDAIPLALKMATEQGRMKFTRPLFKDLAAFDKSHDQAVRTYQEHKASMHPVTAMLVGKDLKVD

[8] = target: T1, Leukotriene A-4 hydrolase (Homo sapiens); conditions: PBMC, time 6.0 hrs
[9] = target: T2, Leukotriene A-4 hydrolase (Homo sapiens, UniProt P09960); test: Inhibition of LTA4H in human whole blood assessed as reduction of calcium ionophore A23187-stimulated LTB4 generation preincubated for 4 hrs followed by ionophore stimulation and measured after 15 hrs by EIA assay; format: tissue-based
T2 sequence (P09960 whole entry): T1 sequence (whole entry)

[10] = target: T2, Leukotriene A-4 hydrolase; test: Inhibition of LTA4H in human PBMC assessed as reduction of calcium ionophore A23187-stimulated LTB4 generation preincubated for 4 hrs followed by ionophore stimulation and measured after 2 hrs by EIA assay; format: tissue-based
[11] = target: T2, Leukotriene A-4 hydrolase; test: (§1) Inhibition of recombinant full length N-terminal His6-tagged LTA4H (unknown origin) expressed in Escherichia coli BL21 DE3 cells at enzyme concentration <1 nM using Arg-AMC as substrate preincubated for 15 mins followed by substrate addition and measured every 10 mins for 300 mins by fluorescence based assay
[12] = Drug concentration in blood isolated from C57/BL6 mouse at 0.625 mg/kg, po BID for 3 days measured after 2 hrs post last dose; format: ADME, organism-based; conditions: time 3 day, read-out: Ct
[13] = Drug concentration in blood isolated from C57/BL6 mouse at […], po BID for 3 days measured after 2 hrs post last dose; format: ADME, organism-based; conditions: dose 2.5 mg/kg, time 3 day, read-out: Ct
[14] = Drug concentration in blood isolated from C57/BL6 mouse at 10 mg/kg, po BID for 3 days measured after 2 hrs post last dose; format: ADME, organism-based; conditions: time 3 day, read-out: Ct
[15] = Drug concentration in plasma isolated from C57/BL6 mouse at 0.625 mg/kg, po BID for 3 days measured after 2 hrs post last dose; format: ADME, organism-based; conditions: time 3 day
[16] = Drug concentration in plasma isolated from C57/BL6 mouse at […], po BID for 3 days measured after 2 hrs post last dose; format: ADME, organism-based; conditions: dose 2.5 mg/kg, time 3 day
[17] = Drug concentration in plasma isolated from C57/BL6 mouse at 10 mg/kg, po BID for 3 days measured after 2 hrs post last dose; format: ADME, organism-based; conditions: time 3 day
[18] = Drug concentration in blood isolated from C57/BL6 mouse at 0.625 mg/kg, po BID for 3 days measured after 14 hrs post last dose; format: ADME, organism-based; conditions: time 3 day, read-out: Ct
[19] = Drug concentration in blood isolated from C57/BL6 mouse at […], po BID for 3 days measured after 14 hrs post last dose; format: ADME, organism-based; conditions: dose 2.5 mg/kg, time 3 day, read-out: Ct
[20] = Drug concentration in blood isolated from C57/BL6 mouse at 10 mg/kg, po BID for 3 days measured after 14 hrs post last dose; format: ADME, organism-based; conditions: time 3 day, read-out: Ct
[21] = Drug concentration in plasma isolated from C57/BL6 mouse at 0.625 mg/kg, po BID for 3 days measured after 14 hrs post last dose; format: ADME, organism-based; conditions: time 3 day
[22] = Drug concentration in plasma isolated from C57/BL6 mouse at […], po BID for 3 days measured after 14 hrs post last dose; format: ADME, organism-based; conditions: dose 2.5 mg/kg, time 3 day
[23] = Drug concentration in plasma isolated from C57/BL6 mouse at 10 mg/kg, po BID for 3 days measured after 14 hrs post last dose; format: ADME, organism-based; conditions: time 3 day
[24] = target: T2, Leukotriene A-4 hydrolase; test: as §1, with “9” for “<1”
[25] = target: T1, Leukotriene A-4 hydrolase (Homo sapiens); conditions: dose 125.0 µM, time 30.0 min
[26] = target: T1, Leukotriene A-4 hydrolase (Homo sapiens); conditions: dose 250.0 µM, time 30.0 min
[27] = target: T1, Leukotriene A-4 hydrolase (Homo sapiens); conditions: dose 500.0 µM, time 30.0 min
[28] = target: T1, Leukotriene A-4 hydrolase (Homo sapiens); conditions: dose 1000.0 µM, time 30.0 min

Sequence of Cytochrome P450 2C9 (P11712 whole entry): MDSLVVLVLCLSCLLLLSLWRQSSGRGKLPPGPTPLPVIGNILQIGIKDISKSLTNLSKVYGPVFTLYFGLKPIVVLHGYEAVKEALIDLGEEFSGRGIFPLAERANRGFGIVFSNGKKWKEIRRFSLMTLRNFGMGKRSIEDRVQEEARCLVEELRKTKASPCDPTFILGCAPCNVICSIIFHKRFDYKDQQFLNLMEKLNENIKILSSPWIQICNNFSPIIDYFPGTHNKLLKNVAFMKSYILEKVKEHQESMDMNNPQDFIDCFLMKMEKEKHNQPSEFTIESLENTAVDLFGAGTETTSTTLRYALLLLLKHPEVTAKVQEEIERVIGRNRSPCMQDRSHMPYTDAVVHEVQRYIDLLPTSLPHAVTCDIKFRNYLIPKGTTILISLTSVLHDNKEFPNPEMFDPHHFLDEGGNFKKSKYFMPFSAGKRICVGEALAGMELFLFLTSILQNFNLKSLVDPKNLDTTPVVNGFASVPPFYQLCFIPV
Sequence of Voltage-gated inwardly rectifying potassium channel KCNH2 (Q12809 whole entry): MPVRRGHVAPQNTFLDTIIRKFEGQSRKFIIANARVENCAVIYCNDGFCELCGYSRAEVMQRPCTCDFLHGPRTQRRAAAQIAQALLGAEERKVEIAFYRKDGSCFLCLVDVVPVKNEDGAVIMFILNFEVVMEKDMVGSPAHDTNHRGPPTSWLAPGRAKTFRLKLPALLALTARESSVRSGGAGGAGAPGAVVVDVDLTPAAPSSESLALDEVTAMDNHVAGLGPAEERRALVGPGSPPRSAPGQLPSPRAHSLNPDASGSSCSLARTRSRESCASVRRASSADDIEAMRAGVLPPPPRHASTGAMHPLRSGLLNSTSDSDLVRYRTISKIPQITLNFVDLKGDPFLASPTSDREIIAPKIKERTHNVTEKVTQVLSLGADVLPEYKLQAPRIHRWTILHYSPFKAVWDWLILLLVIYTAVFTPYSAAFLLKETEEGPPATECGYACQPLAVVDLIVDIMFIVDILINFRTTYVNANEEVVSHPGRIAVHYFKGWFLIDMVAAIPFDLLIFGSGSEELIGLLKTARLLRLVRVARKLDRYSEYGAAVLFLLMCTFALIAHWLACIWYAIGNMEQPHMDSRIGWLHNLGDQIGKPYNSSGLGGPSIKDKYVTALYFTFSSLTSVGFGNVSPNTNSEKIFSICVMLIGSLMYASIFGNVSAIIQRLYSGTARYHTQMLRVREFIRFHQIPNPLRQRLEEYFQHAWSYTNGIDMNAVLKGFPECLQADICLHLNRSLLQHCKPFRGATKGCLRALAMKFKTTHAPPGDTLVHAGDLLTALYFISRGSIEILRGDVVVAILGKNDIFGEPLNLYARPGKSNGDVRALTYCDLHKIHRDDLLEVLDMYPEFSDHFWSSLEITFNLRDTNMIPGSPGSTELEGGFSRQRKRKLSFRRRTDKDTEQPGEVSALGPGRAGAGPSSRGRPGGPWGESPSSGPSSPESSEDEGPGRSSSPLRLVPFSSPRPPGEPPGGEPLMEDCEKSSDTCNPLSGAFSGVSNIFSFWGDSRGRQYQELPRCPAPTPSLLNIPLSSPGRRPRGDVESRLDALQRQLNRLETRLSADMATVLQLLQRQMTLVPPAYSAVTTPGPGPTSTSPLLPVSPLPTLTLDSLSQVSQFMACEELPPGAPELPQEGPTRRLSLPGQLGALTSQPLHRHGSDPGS
Sequence of Cytochrome P450 2D6 (P10635 whole entry): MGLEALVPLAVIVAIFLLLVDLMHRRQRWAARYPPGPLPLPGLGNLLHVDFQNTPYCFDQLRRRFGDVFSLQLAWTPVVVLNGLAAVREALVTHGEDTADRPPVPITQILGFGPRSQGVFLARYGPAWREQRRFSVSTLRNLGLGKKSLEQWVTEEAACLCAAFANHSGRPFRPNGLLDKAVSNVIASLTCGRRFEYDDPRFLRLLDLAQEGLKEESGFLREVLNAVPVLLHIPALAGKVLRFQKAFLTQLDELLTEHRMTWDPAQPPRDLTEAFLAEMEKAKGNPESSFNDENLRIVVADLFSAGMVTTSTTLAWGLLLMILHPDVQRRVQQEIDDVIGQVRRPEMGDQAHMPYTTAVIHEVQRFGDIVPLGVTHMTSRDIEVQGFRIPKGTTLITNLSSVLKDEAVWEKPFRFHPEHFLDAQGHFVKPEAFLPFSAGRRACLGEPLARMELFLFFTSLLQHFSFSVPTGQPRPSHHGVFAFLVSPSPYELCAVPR
Sequence of Cytochrome P450 3A5 (P20815 whole entry): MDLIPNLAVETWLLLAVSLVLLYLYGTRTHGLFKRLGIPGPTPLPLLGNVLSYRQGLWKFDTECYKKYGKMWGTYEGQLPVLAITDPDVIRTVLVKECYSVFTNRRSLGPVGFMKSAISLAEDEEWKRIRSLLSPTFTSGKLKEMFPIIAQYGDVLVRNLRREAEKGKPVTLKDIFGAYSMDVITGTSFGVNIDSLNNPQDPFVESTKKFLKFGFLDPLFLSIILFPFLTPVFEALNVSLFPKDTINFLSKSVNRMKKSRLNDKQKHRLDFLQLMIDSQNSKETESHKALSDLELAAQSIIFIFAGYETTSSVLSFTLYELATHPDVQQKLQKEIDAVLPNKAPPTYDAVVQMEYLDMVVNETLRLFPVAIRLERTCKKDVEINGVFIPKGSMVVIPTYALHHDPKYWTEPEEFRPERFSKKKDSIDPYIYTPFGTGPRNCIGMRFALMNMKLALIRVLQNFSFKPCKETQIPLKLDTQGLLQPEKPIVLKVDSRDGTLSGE

solubility [1]: 344 µM (≈ 129 µg/mL)
Structure (SMILES): N[C@H](CC(=O)O)Cn1nnc(-c2ccc(Oc3ccc(Cl)cn3)cc2)n1

solubility [1]: 35 µM (≈ 13.9 µg/mL)
Structure (SMILES): N[C@@H](CC(=O)O)Cn1nnc(-c2ccc(Oc3nc4ccccc4s3)cc2)n1

half-life [2]: 405 min
IC50 [4]: > 20 µM
IC50 [5]: > 20 µM
IC50 [6]: > 20 µM
Structure (SMILES): O=C(O)CCCn1nnc(-c2ccc(Oc3ccc(Cl)cc3)cc2)n1
IC50 [3]: > 30 µM

solubility [1]: 398 µM (≈ 156 µg/mL)
Structure (SMILES): N[C@H](CC(=O)O)Cn1nnc(-c2ccc(Oc3ncc(Cl)cc3F)cc2)n1

solubility [1]: 166 µM (≈ 61 µg/mL)
Structure (SMILES): N[C@@H](CC(=O)O)Cn1nnc(-c2ccc(COCc3ccccc3)cc2)n1

solubility [1]: > 1000 µM
Structure (SMILES): COc1cnc(Oc2ccc(-c3nnn(C[C@H](N)CC(=O)O)n3)cc2)nc1

solubility [1]: 23 µM (≈ 8.45 µg/mL)
Structure (SMILES): N[C@H](CC(=O)O)Cn1nnc(-c2ccc(OCCc3ccccc3)cc2)n1

solubility [1]: 23 µM (≈ 9.12 µg/mL)
Structure (SMILES): N[C@H](CC(=O)O)Cn1nnc(-c2ccc(Oc3nc4ccccc4s3)cc2)n1

half-life [2]: 33 min
IC50 [4]: > 20 µM
IC50 [5]: > 20 µM
IC50 [6]: > 20 µM
Structure (SMILES): C[C@@H](N)Cn1nnc(-c2ccc(Oc3ccc(Cl)cc3)cc2)n1
IC50 [3]: > 30 µM

IC90 [7]: 5.05 µM
IC90 [8]: 1.07 µM
Structure (SMILES): O=C(O)CCCN1CCC[C@H]1COc1ccc(Oc2ccc(Cl)cc2)cc1

half-life [2]: 240 min
solubility [1]: 28 µM (≈ 10.5 µg/mL)
Structure (SMILES): N[C@H](CC(=O)O)Cn1nnc(-c2ccc(Oc3ccc(Cl)cc3)cc2)n1

half-life [2]: 30 min
IC50 [4]: > 20 µM
IC50 [5]: > 20 µM
IC50 [6]: > 20 µM
Structure (SMILES): NCCCn1nnc(-c2ccc(Oc3ccc(Cl)cc3)cc2)n1
IC50 [3]: 4.8 µM

solubility [1]: 65 µM (≈ 21.7 µg/mL)
Structure (SMILES): CCCCCOc1ccc(-c2nnn(C[C@H](N)CC(=O)O)n2)cc1

Structure (SMILES): CC(=O)N[C@H]1C[C@H]2CC[C@@H](C1)N2Cc1ccc(Oc2nc3ncccc3s2)cc1
IC50 [9]: 0.048 µM
IC50 [10]: 0.018 µM
IC50 [11]: 0.0019 µM
IC90 [7]: 0.104 µM
IC90 [8]: 0.092 µM

half-life [2]: 142 min
Structure (SMILES): O=C(O)CNCCn1nnc(-c2ccc(Oc3ccc(Cl)cc3)cc2)n1

solubility [1]: 391 µM (≈ 149 µg/mL)
Structure (SMILES): C[C@H](Cc1ccccc1)Oc1ccc(-c2nnn(C[C@@H](N)CC(=O)O)n2)cc1

half-life [2]: > 55 min
IC50 [4]: > 20 µM
IC50 [5]: > 20 µM
IC50 [6]: > 20 µM
Structure (SMILES): CC(=O)NCCn1nnc(-c2ccc(Oc3ccc(Cl)cc3)cc2)n1
IC50 [3]: > 30 µM

solubility [1]: 135 µM (≈ 48.2 µg/mL)
Structure (SMILES): N[C@H](CC(=O)O)Cn1nnc(-c2ccc(Oc3ccc(F)cc3)cc2)n1

IC50 [9]: 0.142 µM
IC50 [10]: 0.024 µM
IC50 [11]: 0.0049 µM
concentration at 72 h [12]: 0.488 µM
concentration at 72 h [13]: 1.86 µM
concentration at 72 h [14]: 7.62 µM
concentration at 72 h [15]: 0.597 µM
concentration at 72 h [16]: 3.82 µM
concentration at 72 h [17]: 14.6 µM
concentration at 72 h [18]: 0.032 µM
concentration at 72 h [19]: 0.166 µM
concentration at 72 h [20]: 0.554 µM
concentration at 72 h [21]: 0.009 µM
concentration at 72 h [22]: 0.094 µM
concentration at 72 h [23]: 0.826 µM
IC90 [7]: 0.728 µM
IC90 [8]: 0.181 µM
Structure (SMILES): O=C(O)c1ccc(CN2C[C@@H]3C[C@H]2CN3Cc2ccc(Oc3ccc(-c4ncco4)cc3)cc2)cc1 [ACEBILUSTAT]

solubility [1]: 17 µM (≈ 6.91 µg/mL)
Structure (SMILES): N[C@H](CC(=O)O)Cn1nnc(-c2ccc(Oc3ccc(-c4ncco4)cc3)cc2)n1

half-life [2]: 15 min
IC50 [4]: 2 µM
IC50 [5]: 11 µM
IC50 [6]: > 20 µM
Structure (SMILES): C[C@H](CN)n1nnc(-c2ccc(Oc3ccc(Cl)cc3)cc2)n1
IC50 [3]: > 30 µM

half-life [2]: 15 min
Structure (SMILES): NCCn1nnc(-c2ccc(Oc3ccc(Cl)cc3)cc2)n1

half-life [2]: 114 min
IC50 [4]: > 20 µM
IC50 [5]: > 20 µM
IC50 [6]: > 20 µM
Structure (SMILES): O=C(O)CCn1nnc(-c2ccc(Oc3ccc(Cl)cc3)cc2)n1
IC50 [3]: > 30 µM

IC50 [24]: 4.5 µM
ΔTm [25]: 0.08 °C
ΔTm [26]: 0.2 °C
ΔTm [27]: 0.2 °C
ΔTm [28]: 0.3 °C
Structure (SMILES): OCc1ccc(Oc2ccccc2)cc1

half-life [2]: 5 min
IC50 [4]: 1.4 µM
IC50 [5]: 14 µM
IC50 [6]: > 20 µM
Structure (SMILES): Cc1ccc(Oc2ccc(-c3nnn(CCN)n3)cc2)cc1
IC50 [3]: 5.8 µM

half-life [2]: 190 min
solubility [1]: 26 µM (≈ 9.72 µg/mL)
Structure (SMILES): N[C@@H](CC(=O)O)Cn1nnc(-c2ccc(Oc3ccc(Cl)cc3)cc2)n1

half-life [2]: > 55 min
Structure (SMILES): N[C@@H](Cn1nnc(-c2ccc(Oc3ccc(Cl)cc3)cc2)n1)C(=O)O
